Among the test systems are BT-549 breast; HCT-15 colon; KM12 colon; MDA-MB-231 breast; OVCAR-3 ovarian; RXF 393 renal; SNB-75 CNS; U251 CNS.
Holding throughout (assay): NCI anticancer screen, dose series, 48 h

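Compound exposure: 48 hours, 5 concentrations, 96-well plates. GI50 is the concentration that inhibits growth by half. The concentration for full growth arrest is given as TGI.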

As to `Oc1c(CN2CCCC2)cc(COCc2ccccc2)c2cccnc12`, the GI50 is 3.52 µM in the test on BT-549 breast; 0.152 µM with HCT-15 colon; 2.14 µM in the test with KM12 colon; 4.98 µM in the test on MDA-MB-231 breast; 2.13 µM with OVCAR-3 ovarian; 2.11 µM in the test with RXF 393 renal. Further, the GI50 with SNB-75 CNS is 2.79 µM; in the test on U251 CNS, 2.07 µM. Besides, the TGI in the test on BT-549 breast was 18.1 µM; in the test with HCT-15 colon, 2.9 µM; in the test with KM12 colon, 18.2 µM; in the test on MDA-MB-231 breast, 20.1 µM; in the test with OVCAR-3 ovarian it was 13.3 µM; with RXF 393 renal it was 8.29 µM. The TGI with SNB-75 CNS came to 28.6 µM; in the test with U251 CNS, 13.3 µM.

Take `CC#CC(=O)N1CCC[C@H]1c1nc(-c2ccc(C(=O)Nc3ccccn3)cc2)c2c(N)nccn12`: the GI50 was above 96.5 µM in the test on BT-549 breast; above 72.3 µM in the test on HCT-15 colon; above 72.2 µM in the test with KM12 colon; 28.1 µM with MDA-MB-231 breast; 37.2 µM with OVCAR-3 ovarian; 61.7 µM in the test on RXF 393 renal. In addition, the GI50 with SNB-75 CNS was 24.5 µM; in the test with U251 CNS, above 92.4 µM. The TGI in the test on BT-549 breast, in the test with HCT-15 colon, in the test with KM12 colon, in the test on MDA-MB-231 breast, in the test on OVCAR-3 ovarian and in the test with RXF 393 renal was above 100 µM each time. Moreover, the TGI with SNB-75 CNS and in the test on U251 CNS was above 100 µM throughout.

Regarding `O=C1/C(=C/c2cccs2)CCC/C1=C\c1cccs1`, the GI50 in the test on BT-549 breast was above 58.3 µM; in the test on HCT-15 colon, above 100 µM; in the test on KM12 colon, above 100 µM; with MDA-MB-231 breast it was 44.6 µM; in the test with OVCAR-3 ovarian it was 23.8 µM; in the test with RXF 393 renal, 26.4 µM. Besides, the GI50 in the test with SNB-75 CNS is 16.9 µM; in the test with U251 CNS it was 30.6 µM. Moreover, the TGI in the test with BT-549 breast, with HCT-15 colon, with KM12 colon, with MDA-MB-231 breast, with OVCAR-3 ovarian and in the test with RXF 393 renal was above 100 µM each time. The TGI with SNB-75 CNS was 81.4 µM; in the test on U251 CNS, above 100 µM.

In the case of `COc1ccccc1-n1c(SCc2cc(OC)c(OC)c(OC)c2)nc2ccc(Cl)cc2c1=O`, the GI50 is 3.95 µM in the test with BT-549 breast; 1.46 µM with HCT-15 colon; 1.46 µM in the test with KM12 colon; 4.24 µM with MDA-MB-231 breast; 2.21 µM with OVCAR-3 ovarian; 3.78 µM in the test on RXF 393 renal. For the same compound, the GI50 in the test with SNB-75 CNS was 2.41 µM; in the test with U251 CNS, 3.72 µM. In addition, the TGI in the test with BT-549 breast is above 100 µM; in the test on HCT-15 colon, above 100 µM; in the test with KM12 colon it was above 100 µM; with MDA-MB-231 breast it was above 100 µM; in the test on OVCAR-3 ovarian it was 15.9 µM; with RXF 393 renal it was above 100 µM. Further, the TGI is 32.7 µM with SNB-75 CNS and above 100 µM in the test on U251 CNS.

For the compound `CCS/C(Nc1ccccc1)=C(\C#N)C(=O)Nc1ccc(OC)cc1`, the GI50 with BT-549 breast was 2.8 µM; in the test on HCT-15 colon, 1.19 µM; in the test on KM12 colon, 2.8 µM; with MDA-MB-231 breast, 4.14 µM; in the test with OVCAR-3 ovarian, 2.6 µM; in the test on RXF 393 renal, 2.24 µM. The GI50 in the test with SNB-75 CNS is 2.13 µM; in the test on U251 CNS, 4.42 µM. In addition, the TGI with BT-549 breast is above 100 µM; in the test with HCT-15 colon, above 100 µM; with KM12 colon, above 100 µM; in the test with MDA-MB-231 breast it was 36.5 µM; in the test on OVCAR-3 ovarian it was 8.59 µM; in the test on RXF 393 renal, 7.86 µM. Moreover, the figures for the TGI in the test with SNB-75 CNS and in the test with U251 CNS were 7.21 µM and above 100 µM, respectively.

For `CC(=O)N1CC(F)(F)c2c(Sc3ncc(N4CCC5(CC4)COC[C@H]5N)nc3N)cccc21`, the GI50 in the test on BT-549 breast was 10.8 µM; in the test on HCT-15 colon, 24 µM; in the test with KM12 colon, 22.1 µM; with MDA-MB-231 breast, 17.3 µM; in the test on OVCAR-3 ovarian, 16.9 µM; in the test with RXF 393 renal it was 1.81 µM. Besides, the results for the GI50 in the test on SNB-75 CNS and in the test with U251 CNS were 3.19 µM and 11.1 µM, respectively. In addition, the TGI was 53.7 µM with BT-549 breast; 96.8 µM in the test with HCT-15 colon; above 100 µM in the test on KM12 colon; 41.5 µM in the test on MDA-MB-231 breast; 61.5 µM in the test with OVCAR-3 ovarian; 9.28 µM in the test with RXF 393 renal. In addition, the figures for the TGI in the test on SNB-75 CNS and with U251 CNS were 38.2 µM and 52.5 µM, respectively.

Turning to `O=C(/C=C\c1ccnc2ccccc12)c1ccc([N+](=O)[O-])cc1`, the GI50 in the test on BT-549 breast was 11.2 µM; in the test on HCT-15 colon, 2.55 µM; with KM12 colon, 3 µM; in the test with MDA-MB-231 breast, 8.63 µM; in the test on OVCAR-3 ovarian, 7.23 µM; with RXF 393 renal, 12 µM. Besides, the figures for the GI50 in the test on SNB-75 CNS and in the test on U251 CNS were above 75.4 µM and 10.6 µM, respectively. In addition, the TGI in the test with BT-549 breast was 27.4 µM; in the test on HCT-15 colon it was 9.2 µM; in the test with KM12 colon, 11.1 µM; in the test with MDA-MB-231 breast, 38.7 µM; with OVCAR-3 ovarian, 43.2 µM; in the test on RXF 393 renal, above 66 µM. The TGI in the test with SNB-75 CNS is above 100 µM; in the test on U251 CNS, 41.6 µM.

Turning to `O=C(/C=C/c1ccco1)Nc1ncc(Cc2ccc(F)cc2)s1`, the GI50 was 0.368 µM in the test on BT-549 breast; 0.0461 µM in the test on HCT-15 colon; 0.0486 µM with KM12 colon; 0.199 µM in the test with MDA-MB-231 breast; 0.0336 µM in the test on OVCAR-3 ovarian; 0.122 µM with RXF 393 renal. Further, the GI50 was 0.0547 µM with SNB-75 CNS and 0.0615 µM in the test on U251 CNS. Also, the TGI is above 25.3 µM with BT-549 breast; above 100 µM in the test with HCT-15 colon; above 100 µM with KM12 colon; above 45.4 µM in the test on MDA-MB-231 breast; 0.141 µM in the test with OVCAR-3 ovarian; 0.593 µM in the test with RXF 393 renal. In addition, the TGI was 0.706 µM in the test on SNB-75 CNS and above 100 µM with U251 CNS.

For `C[C@H]1[C@@H](OCC(CO[C@H]2O[C@@H]3O[C@@]4(C)CC[C@H]5[C@H](C)CC[C@@H]([C@H]2C)[C@@]35OO4)=NOCC(=O)O)OC2O[C@@]3(C)CC[C@H]4[C@H](C)CC[C@@H]1[C@@]24OO3` (stereo partly specified), the GI50 in the test on BT-549 breast was 0.473 µM; in the test with HCT-15 colon, below 0.01 µM; in the test on KM12 colon, below 0.0166 µM; in the test on MDA-MB-231 breast, 0.12 µM; in the test with OVCAR-3 ovarian, below 0.0188 µM; in the test with RXF 393 renal, 0.0821 µM. Further, the results for the GI50 with SNB-75 CNS and with U251 CNS were 0.698 µM and below 0.0114 µM, respectively. The TGI in the test on BT-549 breast was 20.7 µM; in the test with HCT-15 colon, 0.891 µM; in the test on KM12 colon, 13 µM; in the test on MDA-MB-231 breast it was 2.41 µM; in the test on RXF 393 renal, 15.8 µM; with SNB-75 CNS, 15.4 µM. In the test on U251 CNS, the TGI came to 14 µM.

Consider `O=Cc1coc2ccccc2c1=O`, for which the TGI in the test on BT-549 breast is 36.8 µM; with HCT-15 colon it was 37.4 µM; in the test on KM12 colon it was 69.9 µM; with MDA-MB-231 breast it was 48.4 µM; with OVCAR-3 ovarian, above 100 µM; in the test on RXF 393 renal, 40.2 µM. For the same compound, the TGI in the test on SNB-75 CNS came out at 0.0768 µM; with U251 CNS it was 65.2 µM.

(Values after PubChem BioAssay (NCI).)
